In ChEMBL document CHEMBL4699627, “Synthesis and biological screening of thiosemicarbazones of substituted 3-acetylcoumarins having d-glucose moiety” (Bioorg Med Chem Lett, 2020):
In brackets after ≈: the same amount, converted by molar mass.

What was measured:
Saccharomyces cerevisiae = assay: Antifungal activity against Saccharomyces cerevisiae SH 20; format: functional
Aspergillus niger = assay: Antifungal activity against Aspergillus niger ATCC 439; format: functional
Candida albicans = assay: Antifungal activity against Candida albicans ATCC 7754; format: functional
Aspergillus flavus = assay: Antifungal activity against Aspergillus flavus ATCC 204304; format: functional
[1] = test system: Staphylococcus epidermidis; assay: Antibacterial activity against Staphylococcus epidermidis ATCC 12228 assessed as reduction in bacterial growth; format: functional
Staphylococcus aureus = assay: Antibacterial activity against Staphylococcus aureus ATCC 11632 assessed as reduction in bacterial growth; format: functional
Bacillus subtilis = assay: Antibacterial activity against Bacillus subtilis ATCC 11774 assessed as reduction in bacterial growth; format: functional
Pseudomonas aeruginosa = assay: Antibacterial activity against Pseudomonas aeruginosa ATCC […] assessed as reduction in bacterial growth; format: functional
Escherichia coli = assay: Antibacterial activity against Escherichia coli ATCC 25922 assessed as reduction in bacterial growth; format: functional
Salmonella typhimurium = assay: Antibacterial activity against Salmonella typhimurium ATCC 14028 assessed as reduction in bacterial growth; format: functional, Salmonella enterica subsp. enterica serovar Typhimurium; conditions: Salmonella enterica
Klebsiella pneumoniae = assay: Antibacterial activity against Klebsiella pneumoniae ATCC 4352 assessed as reduction in bacterial growth; format: functional
MDA-MB-231 = assay: Cytotoxicity against human MDA-MB-231 cells incubated for 3 days by MTT assay; format: functional, cell-based; conditions: MDA-MB-231, 72 h
PC-3 = assay: Cytotoxicity against human PC-3 cells incubated for 3 days by MTT assay; format: functional, cell-based; conditions: PC-3, 72 h
[2] = test system: Mycobacterium tuberculosis; assay: Antimycobacterial activity against Mycobacterium tuberculosis H37Ra ATCC 25177 assessed as growth inhibition incubated for 7 days measured after 48 hrs treatment with resazurin by alamarblue assay; format: functional; conditions: H37Ra ATCC 25177, 216 h, time 9 day
[3] = test system: Mycobacterium tuberculosis; assay: Antimycobacterial activity against Mycobacterium tuberculosis H37Ra ATCC 25177 assessed as bacterial killing incubated for 4 weeks by CLSI standard plate count method; format: functional; conditions: H37Ra ATCC 25177, 672 h
Rhodesain = Rhodesain (Trypanosoma brucei rhodesiense, UniProt Q95PM0); assay: Inhibition of Trypanosoma brucei rhodesiense rhodesain using fluorogenic substrate Z-Phe-Arg-aminomethylcoumarin as substrate by fluorescence assay
Chain of Rhodesain (Q95PM0 whole entry): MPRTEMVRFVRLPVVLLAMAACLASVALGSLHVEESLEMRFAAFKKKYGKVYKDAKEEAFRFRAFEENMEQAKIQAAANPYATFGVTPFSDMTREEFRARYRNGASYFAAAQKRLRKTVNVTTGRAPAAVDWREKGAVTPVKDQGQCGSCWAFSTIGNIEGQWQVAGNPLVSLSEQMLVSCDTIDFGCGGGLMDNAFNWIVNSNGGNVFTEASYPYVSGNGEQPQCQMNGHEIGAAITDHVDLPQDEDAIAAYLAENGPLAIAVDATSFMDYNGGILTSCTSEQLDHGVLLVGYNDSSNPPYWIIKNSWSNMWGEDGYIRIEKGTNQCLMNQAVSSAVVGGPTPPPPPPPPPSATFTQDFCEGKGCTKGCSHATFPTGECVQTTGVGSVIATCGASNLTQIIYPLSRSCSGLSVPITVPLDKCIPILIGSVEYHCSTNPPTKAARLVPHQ

SMILES | MIC (Saccharomyces cerevisiae) | MIC (Aspergillus niger) | MIC (Candida albicans) | MIC (Aspergillus flavus) | MIC [1] | MIC (Staphylococcus aureus) | MIC (Bacillus subtilis) | MIC (Pseudomonas aeruginosa) | MIC (Escherichia coli) | MIC (Salmonella typhimurium) | MIC (Klebsiella pneumoniae) | IC50 (MDA-MB-231) | IC50 (PC-3) | MIC [2] | MBC [3] | IC50 (Rhodesain)
OC(Cn1cncn1)(Cn1cncn1)c1ccc(F)cc1F [FLUCONAZOLE] | 0.78 µM (≈ 0.239 µg/mL) | 1.56 µM (≈ 0.478 µg/mL) | 0.78 µM (≈ 0.239 µg/mL) | 0.78 µM (≈ 0.239 µg/mL) | – | – | – | – | – | – | – | – | – | – | – | –
O=C(O)c1cn(C2CC2)c2cc(N3CCNCC3)c(F)cc2c1=O [CIPROFLOXACIN] | – | – | – | – | 3.12 µM (≈ 1.04 µg/mL) | 3.12 µM (≈ 1.04 µg/mL) | 3.12 µM (≈ 1.04 µg/mL) | 1.56 µM (≈ 0.517 µg/mL) | 1.56 µM (≈ 0.517 µg/mL) | 1.56 µM (≈ 0.517 µg/mL) | 1.56 µM (≈ 0.517 µg/mL) | – | – | – | – | –
CC(=O)OC[C@H]1O[C@@H](NC(=S)N/N=C(\C)c2cc3cc(C)ccc3oc2=O)[C@H](OC(C)=O)[C@@H](OC(C)=O)[C@@H]1OC(C)=O | 25 µM (≈ 15.1 µg/mL) | 1.56 µM (≈ 0.945 µg/mL) | 3.12 µM (≈ 1.89 µg/mL) | – | 50 µM (≈ 30.3 µg/mL) | 12.5 µM (≈ 7.57 µg/mL) | – | 12.5 µM (≈ 7.57 µg/mL) | 50 µM (≈ 30.3 µg/mL) | 25 µM (≈ 15.1 µg/mL) | 100 µM (≈ 60.6 µg/mL) | – | – | – | – | –
CC(=O)OC[C@H]1O[C@@H](NC(=S)N/N=C(\C)c2c(C)c3ccccc3oc2=O)[C@H](OC(C)=O)[C@@H](OC(C)=O)[C@@H]1OC(C)=O | 12.5 µM (≈ 7.57 µg/mL) | 12.5 µM (≈ 7.57 µg/mL) | 12.5 µM (≈ 7.57 µg/mL) | 25 µM (≈ 15.1 µg/mL) | 100 µM (≈ 60.6 µg/mL) | 25 µM (≈ 15.1 µg/mL) | > 100 µM | – | – | – | 50 µM (≈ 30.3 µg/mL) | – | – | – | – | –
CC(=O)OC[C@H]1O[C@@H](NC(=S)N/N=C(\C)c2cc3ccccc3oc2=O)[C@H](OC(C)=O)[C@@H](OC(C)=O)[C@@H]1OC(C)=O | 50 µM (≈ 29.6 µg/mL) | > 100 µM | 100 µM (≈ 59.2 µg/mL) | 25 µM (≈ 14.8 µg/mL) | 12.5 µM (≈ 7.39 µg/mL) | – | > 100 µM | 50 µM (≈ 29.6 µg/mL) | 50 µM (≈ 29.6 µg/mL) | 100 µM (≈ 59.2 µg/mL) | 100 µM (≈ 59.2 µg/mL) | – | – | – | – | –
O=c1[nH]cc(F)c(=O)[nH]1 [FLUOROURACIL] | – | – | – | – | – | – | – | – | – | – | – | 4750 nM | 2880 nM | – | – | –
COc1cccc2cc(/C(C)=N/NC(=S)N[C@@H]3O[C@H](COC(C)=O)[C@@H](OC(C)=O)[C@H](OC(C)=O)[C@H]3OC(C)=O)c(=O)oc12 | 50 µM (≈ 31.1 µg/mL) | 6.25 µM (≈ 3.89 µg/mL) | 25 µM (≈ 15.5 µg/mL) | 6.25 µM (≈ 3.89 µg/mL) | 3.12 µM (≈ 1.94 µg/mL) | 50 µM (≈ 31.1 µg/mL) | 50 µM (≈ 31.1 µg/mL) | – | 1.56 µM (≈ 0.97 µg/mL) | – | 1.56 µM (≈ 0.97 µg/mL) | – | – | – | – | –
CC(=O)OC[C@H]1O[C@@H](NC(=S)N/N=C(\C)c2cc3cccc([N+](=O)[O-])c3oc2=O)[C@H](OC(C)=O)[C@@H](OC(C)=O)[C@@H]1OC(C)=O | 12.5 µM (≈ 7.96 µg/mL) | 3.12 µM (≈ 1.99 µg/mL) | 0.78 µM (≈ 0.497 µg/mL) | 12.5 µM (≈ 7.96 µg/mL) | 12.5 µM (≈ 7.96 µg/mL) | 0.78 µM (≈ 0.497 µg/mL) | 12.5 µM (≈ 7.96 µg/mL) | – | 25 µM (≈ 15.9 µg/mL) | > 100 µM | 12.5 µM (≈ 7.96 µg/mL) | – | – | – | – | –
CC(=O)OC[C@H]1O[C@@H](NC(=S)N/N=C(\C)c2c(C)c3ccc(O)cc3oc2=O)[C@H](OC(C)=O)[C@@H](OC(C)=O)[C@@H]1OC(C)=O | 0.78 µM (≈ 0.485 µg/mL) | 3.12 µM (≈ 1.94 µg/mL) | > 100 µM | 1.56 µM (≈ 0.97 µg/mL) | 1.56 µM (≈ 0.97 µg/mL) | 0.78 µM (≈ 0.485 µg/mL) | 100 µM (≈ 62.2 µg/mL) | 12.5 µM (≈ 7.77 µg/mL) | 100 µM (≈ 62.2 µg/mL) | 3.12 µM (≈ 1.94 µg/mL) | 100 µM (≈ 62.2 µg/mL) | – | – | – | – | –
CC(=O)OC[C@H]1O[C@@H](NC(=S)N/N=C(\C)c2cc3ccc(C)cc3oc2=O)[C@H](OC(C)=O)[C@@H](OC(C)=O)[C@@H]1OC(C)=O | > 100 µM | 25 µM (≈ 15.1 µg/mL) | 3.12 µM (≈ 1.89 µg/mL) | > 100 µM | – | 1.56 µM (≈ 0.945 µg/mL) | 100 µM (≈ 60.6 µg/mL) | 25 µM (≈ 15.1 µg/mL) | 25 µM (≈ 15.1 µg/mL) | – | 25 µM (≈ 15.1 µg/mL) | – | – | – | – | –
Clc1ccc(COC(Cn2ccnc2)c2ccc(Cl)cc2Cl)c(Cl)c1 (centres undefined) [MICONAZOLE] | 3.12 µM (≈ 1.3 µg/mL) | 1.56 µM (≈ 0.649 µg/mL) | 3.12 µM (≈ 1.3 µg/mL) | 1.56 µM (≈ 0.649 µg/mL) | – | – | – | – | – | – | – | – | – | – | – | –
NC(=S)N/N=C/c1ccc(OC(=O)CC2SC(=O)NC2=O)cc1 (centres undefined) | – | – | – | – | – | – | – | – | – | – | – | – | – | 0.031 µg/mL (≈ 0.088 µM) | 0.063 µg/mL (≈ 0.179 µM) | –
CC(=O)OC[C@H]1O[C@@H](NC(=S)N/N=C(\C)c2cc3cc(Cl)ccc3oc2=O)[C@H](OC(C)=O)[C@@H](OC(C)=O)[C@@H]1OC(C)=O | 50 µM (≈ 31.3 µg/mL) | 100 µM (≈ 62.6 µg/mL) | 1.56 µM (≈ 0.977 µg/mL) | 12.5 µM (≈ 7.83 µg/mL) | > 100 µM | > 100 µM | – | 3.12 µM (≈ 1.96 µg/mL) | 25 µM (≈ 15.7 µg/mL) | 50 µM (≈ 31.3 µg/mL) | – | – | – | – | – | –
COc1cc(C/C=N/NC(N)=S)ccc1O[C@@H]1O[C@H](COC(C)=O)[C@H](OC(C)=O)[C@H](OC(C)=O)[C@H]1OC(C)=O | – | – | – | – | – | – | – | – | – | – | – | – | – | – | – | 1200 nM
CN[C@H](CC(C)C)C(=O)N[C@H]1C(=O)N[C@@H](CC(N)=O)C(=O)N[C@H]2C(=O)N[C@H]3C(=O)N[C@H](C(=O)N[C@H](C(=O)O)c4cc(O)cc(O)c4-c4cc3ccc4O)[C@H](O)c3ccc(c(Cl)c3)Oc3cc2cc(c3O[C@@H]2O[C@H](CO)[C@@H](O)[C@H](O)[C@H]2O[C@H]2C[C@](C)(N)[C@H](O)[C@H](C)O2)Oc2ccc(cc2Cl)[C@H]1O [VANCOMYCIN] | – | – | – | – | – | 3.12 µM (≈ 4.53 µg/mL) | 1.56 µM (≈ 2.26 µg/mL) | – | – | – | – | – | – | – | – | –
CC(=O)OC[C@H]1O[C@@H](NC(=S)N/N=C(\C)c2cc3cc([N+](=O)[O-])ccc3oc2=O)[C@H](OC(C)=O)[C@@H](OC(C)=O)[C@@H]1OC(C)=O | 25 µM (≈ 15.9 µg/mL) | 12.5 µM (≈ 7.96 µg/mL) | 25 µM (≈ 15.9 µg/mL) | 100 µM (≈ 63.7 µg/mL) | 12.5 µM (≈ 7.96 µg/mL) | 12.5 µM (≈ 7.96 µg/mL) | > 100 µM | 1.56 µM (≈ 0.993 µg/mL) | 3.12 µM (≈ 1.99 µg/mL) | 100 µM (≈ 63.7 µg/mL) | 50 µM (≈ 31.8 µg/mL) | – | – | – | – | –
C/C(=N\NC(=S)NN[C@@H]1O[C@H](CO)[C@@H](O)[C@H](O)[C@H]1O)c1ccccn1 | – | – | – | – | – | – | – | – | – | – | – | 1600 nM | 2800 nM | – | – | –
CC(=O)OC[C@H]1O[C@@H](NC(=S)N/N=C(\C)c2cc3cc(Br)ccc3oc2=O)[C@H](OC(C)=O)[C@@H](OC(C)=O)[C@@H]1OC(C)=O | 25 µM (≈ 16.8 µg/mL) | – | 50 µM (≈ 33.5 µg/mL) | 6.25 µM (≈ 4.19 µg/mL) | 3.12 µM (≈ 2.1 µg/mL) | 100 µM (≈ 67 µg/mL) | – | 3.12 µM (≈ 2.1 µg/mL) | 3.12 µM (≈ 2.1 µg/mL) | 25 µM (≈ 16.8 µg/mL) | 25 µM (≈ 16.8 µg/mL) | – | – | – | – | –
